Source: patent US7795310B2, “Methods and reagents for the treatment of metabolic disorders” (CombinatoRx, Inc., priority 2004, dated 2010)
Structures can show the parent of a compound that is named as a salt. Where two headings read alike, the source gives them in different places.

Columns and labels:
[1] = test system: 3T3-L1 adipocytes; experiment: Screening assay: insulin-stimulated 14C-glucose uptake by adipocytes (Example 3; F, sF, S/N); assay type: cell-based, mouse
Procedure: These assays were conducted as follows.
(§1) Complete media, also referred to as “Prees” media, was prepared as follows. Dulbecco's Modified Eagle's Medium (DMEM) was supplemented with L-glutamine, penicillin-G and streptomycin (pen/strep), and heat-inactivated fetal bovine serum (FBS) (heat inactivated at […] for 30 minutes). Because serum can affect the growth, adherence, and differentiation of cells, any new lot of serum was first tested prior to use. Media was equilibrated in the incubator (5% CO2) until the pH was within the proper range (˜7), as indicated by the red/orange color of the indicator dye. If the media became pink (indicating a high pH), we discarded the media as basic conditions can affect cells and denature the insulin used in the differentiation medium-1 (DM1) and the differentiation medium-2 (DM2).
Differentiation media-2 (DM2) was prepared by supplementing DMEM with 10% FBS, L-glutamine, pen/strep, and insulin (120 nM).
(§2) Cell culture plates were gelatinized as follows. Gelatin (1% w/v in distilled water) was autoclaved and stored at room temperature. The bottom of each cell culture well was covered uniformly in the gelatin solution, ensuring that no bubbles were formed. This solution was removed leaving behind a thin film of gelatin. These plates were left to dry under the tissue culture hood. Plates were next washed with PBS, after which a 0.5% glutaric dialdehyde solution (glutaraldehyde in distilled water) was added to the cell culture wells. After ten minutes, wells were washed twice with DMEM containing pen-strep. Each washing step should last for approximately five minutes.
(§3) 3T3-L1 pre-adipocyte cells were split approximately every 2-3 days or upon reaching a confluence of approximately 60%. Overconfluency may affect the ability of these cells to differentiate into adipocytes.
(§4) D-(+)-glucose (“cold” glucose, not radiolabeled) was added to DPBS mix to a final concentration of 10 mM.
(§5) Lysis buffer, a mixture of a base (e.g., sodium hydroxide at a final concentration of 0.5N) and a detergent (e.g., sodium dodecyl sulphate (SDS) diluted to a final concentration of 0.1% w/v) was freshly prepared each time (within one to two hours of use). Prior to use, lysis buffer was warmed up to a temperature exceeding that of room temperature for a period of approximately 30 minutes to avoid precipitation of the buffer.
(§6) Pre-adipocyte 3T3-L1 cells were plated at a density of approximately 5000 cells/well (in black NUNC 96 well plate). These cells were differentiated into adipocytes in two separate steps. Initially, cells were cultured in differentiation medium-1 (DM1) (day 1 of adipocyte differentation) for a period of two to three days. DM1 prevents proliferation and induces the expression of adipocyte-specific genes. Cells were next cultured in differentiation medium-2 (DM2) for 3 to 4 days, after which the culture media was replaced by fresh DM2. The glucose uptake assay was performed at day 9-15 of differentiation.
Two days prior to the experiment (at day 7-13 of differentiation), DM2 was removed and replaced with fresh Prees media. Candidate compounds were added at this time, allowing an incubation period of approximately 48 hours. On the day of the experiment, cells (now at day 9 to 15 of differentiation) were serum starved for three hours in DPBS, magnesium sulfate (0.8 mM), and Hepes (10 mM) at pH ˜7. After this incubation period, fresh DPBS containing insulin (10 nM) was added to the adipocytes. Fresh DPBS without any insulin were placed on cells that served as a negative control. Following an incubation period of 25 minutes at 37° C., radioactive glucose (labeled with ^14C, at a final concentration of 0.04 mM, ˜0.26 μCi ^14C-glucose in each well) was added to the media for a period of 15 minutes at room temperature. Media was next removed and cells were washed thoroughly and lysed. Upon lysis, cells form a small, cloudy mass, detached from the well bottom.

[2] = test system: human skeletal myoblasts; experiment: Glycogen synthesis from radiolabeled glucose in skeletal myoblasts (Example 3; Xlsyz); assay type: cell-based
Procedure: In another set of experiments, human skeletal myoblasts obtained by the conditional immortalization of cells derived from a non-diabetic subject, were used to screen the effect of a multitude of compounds on glycogen synthesis. For each compound, two doses were tested in triplicate. The vehicle was used as a negative control and insulin was used as a positive control. Prior to treatment, cells were serum-starved for 12 to 18 hours in Ham's F10 medium. Cells were next incubated either with the test compounds or control for a period of two hours in serum-free media containing radiolabeled glucose, after which, glycogen synthesis was measured.

[3] = test system: 3T3-L1 adipocytes; experiment: Insulin-stimulated 14C-glucose uptake in differentiated adipocytes (Example 1); assay type: cell-based, mouse
Procedure: Differentiated mouse adipocytes were employed to identify combinations of agents that have the ability to increase glucose uptake upon insulin stimulation, as detected by scintillation counting of radiolabelled glucose (using, for example, the Perkin Elmer 1450 Microbeta JET reader). These assays were conducted as follows.
as §1
Differentiation media-1 (DM1) was prepared by supplementing DMEM with 10% FBS, L-glutamine, pen/strep, IBMX (375 μM), insulin (120 nM), and dexamethasone (188 nM). Differentiation media-2 (DM2) was prepared by supplementing DMEM with 10% FBS, L-glutamine, pen/strep, and insulin (120 nM).
as §2, §3, §4, §5, §6
Two days prior to the experiment (at day 7-13 of differentiation), DM2 was removed and replaced with fresh Prees media. Candidate compounds were added at this time, allowing an incubation period of approximately 48 hours. On the day of the experiment, cells (now at day 9 to 15 of differentiation) were serum starved for three hours in DPBS, magnesium sulfate (0.8 mM), and Hepes (10 mM) at pH ˜7. After this incubation period, fresh DPBS containing insulin (10 nM) was added to the adipocytes. Fresh DPBS without any insulin were placed on cells that served as a negative control. […]

[4] = insulin-stimulated 14C-glucose uptake, 3T3-L1 adipocytes, about 48 h with compound, 10 nM insulin, test concentration per compound in column CRx uM
[5] = glycogen synthesis, human skeletal myoblasts, 2 h, dose (H)
[6] = glycogen synthesis, human skeletal myoblasts, 2 h, dose (L), concentration per compound uM(L)

Row | Molecule | CRx F [1, 4] | Xlsyz F(H) [2, 5] | Xlsyz F(L) [2, 6] | other results
1 | CC(=O)Nc1ccc(O)cc1 [Acetaminophen] | 1.021 | – | – | –
2 | CC(=O)Nc1nnc(S(N)(=O)=O)s1 [Acetazolamide] | 0.8994 | – | – | –
3 | CC(=O)O[C@H]1C[C@H](O[C@H]2[C@@H](O)C[C@H](O[C@H]3[C@@H](O)C[C@H](O[C@H]4CC[C@@]5(C)[C@H](CC[C@@H]6[C@@H]5CC[C@]5(C)[C@@H](C7=CC(=O)OC7)CC[C@]65O)C4)O[C@@H]3C)O[C@@H]2C)O[C@H](C)[C@H]1O [Acetyldigitoxin] | 0.8077 | 1.2593 | 1.3016 | –
4 | Cl.N [Ammonium Chloride] | – | 1.2105 | 0.8482 | CRx F [1]: 0.8881
5 | CCCCNCC(O)c1ccc(O)cc1 (stereo not drawn) [Bamethan] | 1.1895 | 1.3846 | 0.9106 | –
6 | CC(C)(Oc1ccc(CCNC(=O)c2ccc(Cl)cc2)cc1)C(=O)O [Bezafibrate] | – | – | – | average fold increase in insulin-stimulated glucose uptake compared to vehicle treated control ([3]; Bezafibrate 9 μM, Cinnamic acid 0 μM, average of three biological replicates): 0.94 fold; average fold increase in insulin-stimulated glucose uptake compared to vehicle treated control ([3]; Bezafibrate 9 μM, Diflunisal 0 μM, average of four biological replicates): 1.16 fold; average fold increase in insulin-stimulated glucose uptake compared to vehicle treated control ([3]; Bezafibrate 18 μM, Cinnamic acid 0 μM, average of three biological replicates): 1.21 fold; average fold increase in insulin-stimulated glucose uptake compared to vehicle treated control ([3]; Bezafibrate 18 μM, Diflunisal 0 μM, average of four biological replicates): 1.37 fold; average fold increase in insulin-stimulated glucose uptake compared to vehicle treated control ([3]; Bezafibrate 36 μM, Cinnamic acid 0 μM, average of three biological replicates): 1.15 fold; average fold increase in insulin-stimulated glucose uptake compared to vehicle treated control ([3]; Bezafibrate 36 μM, Diflunisal 0 μM, average of four biological replicates): 1.57 fold
7 | [Ca+2].[Cl-].[Cl-] [Calcium Chloride] | – | – | – | CRx F [1]: 0.7358; Xlsyz F(H) [2]: 1.2121; Xlsyz F(L) [2]: 1.0714
8 | C[C@H](CS)C(=O)N1CCC[C@H]1C(=O)O [Captopril] | 0.662 | – | – | –
9 | NC(=O)N1c2ccccc2C=Cc2ccccc21 [Carbamazepine] | 0.7464 | – | – | –
10 | O=C(O)C=Cc1ccccc1 [Cinnamic acid, 3-phenyl-2-propenoic acid] | – | – | – | average fold increase in insulin-stimulated glucose uptake compared to vehicle treated control ([3]; Cinnamic acid 3 μM, Bezafibrate 0 μM, average of three biological replicates): 0.98 fold; average fold increase in insulin-stimulated glucose uptake compared to vehicle treated control ([3]; Cinnamic acid 6 μM, Bezafibrate 0 μM, average of three biological replicates): 1.03 fold; average fold increase in insulin-stimulated glucose uptake compared to vehicle treated control ([3]; Cinnamic acid 12 μM, Bezafibrate 0 μM, average of three biological replicates): 1.10 fold
11 | [Cl][Cu][Cl] [Cupric Chloride] | 1.3661 | 1.25 | 1.0643 | –
12 | O=C(O)Cc1ccccc1Nc1c(Cl)cccc1Cl [Diclofenac Sodium] | 1.3966 | – | – | –
13 | Cc1onc(-c2c(Cl)cccc2Cl)c1C(=O)N[C@@H]1C(=O)N2[C@@H]1SC(C)(C)[C@@H]2C(=O)O [Dicloxacillin Sodium] | 1.0042 | – | – | –
14 | O=C(O)c1cc(-c2ccc(F)cc2F)ccc1O [Diflunisal, 2′,4′-difluoro-4-hydroxy-[1,1′-biphenyl]-3-carboxylic acid] | – | – | – | average fold increase in insulin-stimulated glucose uptake compared to vehicle treated control ([3]; Diflunisal 9 μM, Bezafibrate 0 μM, average of four biological replicates): 1.12 fold; average fold increase in insulin-stimulated glucose uptake compared to vehicle treated control ([3]; Diflunisal 18 μM, Bezafibrate 0 μM, average of four biological replicates): 1.19 fold; average fold increase in insulin-stimulated glucose uptake compared to vehicle treated control ([3]; Diflunisal 36 μM, Bezafibrate 0 μM, average of four biological replicates): 1.52 fold
15 | C[C@H]1O[C@@H](O[C@H]2[C@@H](O)C[C@H](O[C@H]3[C@@H](O)C[C@H](O[C@H]4CC[C@@]5(C)[C@H](CC[C@@H]6[C@@H]5CC[C@]5(C)[C@@H](C7=CC(=O)OC7)CC[C@]65O)C4)O[C@@H]3C)O[C@@H]2C)C[C@H](O)[C@@H]1O [Digitoxin] | 0.8801 | – | – | –
16 | C[C@H](N[C@@H](CCc1ccccc1)C(=O)O)C(=O)N1CCC[C@H]1C(=O)O [Enalaprilat] | 0.992 | 0.8333 | 1.2739 | –
17 | COc1cc([C@@H]2c3cc4c(cc3[C@@H](O[C@@H]3O[C@@H]5CO[C@@H](C)O[C@H]5[C@H](O)[C@H]3O)[C@H]3COC(=O)[C@H]23)OCO4)cc(OC)c1O [Etoposide] | 1.037 | – | – | –
18 | CCC(Cc1c(I)cc(I)c(O)c1I)C(=O)O (stereo not drawn) [Iohenoxic Acid] | 1.0641 | 1.2119 | 1.0504 | –
19 | CCN(CC)C(=S)[S-].CCN(CC)C(=S)[S-].[Pb+2] [LEAD DIETHYLDITHIOCARBAMATE] | 1.524 | 1.2527 | 1.064 | –
20 | CCN(CC)CC#CCOC(=O)C(O)(c1ccccc1)C1CCCCC1 (stereo not drawn) [Oxybutynin Chloride] | 1.0483 | – | – | –
21 | O=C1NC(=O)C(c2ccccc2)(c2ccccc2)N1 [PHENYTOIN] | 1.1755 | – | – | –
22 | CCCCC1C(=O)N(c2ccccc2)N(c2ccccc2)C1=O [Phenylbutazone] | 1.2098 | – | – | –
23 | CCN(CC)CCCC(C)Nc1c2ccc(Cl)cc2nc2ccc(OC)cc12 (stereo not drawn) [QUINACRINE] | 1.0058 | – | – | –
24 | Cc1cc(NS(=O)(=O)c2ccc(N)cc2)nc(C)n1 [Sulfasomidine] | 1.1803 | 1.3077 | 1.0165 | –
25 | CC(C)(C)NCC(O)c1cc(O)cc(O)c1 (stereo not drawn) [Terbutaline Sulfate] | 1.2758 | – | – | –
26 | CCS(=O)(=O)CCn1c([N+](=O)[O-])cnc1C [Tinidazole] | 1.0177 | – | – | –
27 | c1ccc(CC2=NCCN2)cc1 [Tolazoline Hydrochloride] | 0.967 | – | – | –
28 | Inulin | 1.0249 | 1.0089 | 1.3377 | –
29 | Invertase | 1.2175 | 0.8561 | 1.3974 | –
30 | Metaproterenol Hemisulfate Salt | 1.7249 | 1.1261 | 1.4052 | –
